Data published in publication PMC12472947 (Pharmaceuticals, 2025).
“Also recorded” adds a separate entry of the source. Marks after values point to notes of the source that are not given here.

Legend:
[1] = biological target: electric eel AChE [EeAChE] (Electrophorus electricus, UniProt O42275); assay: biochemical; format: biochemical; conditions: for IC50: Electric eel AChE, Ellman method, read-out: IC50(nM) ± SD AChE (EeAChE); for SI: Selectivity Index = EqBChE IC50/EeAChE IC50
Description: The anticholinesterase activity was determined using Ellman’s method, adapted as follows. […] Subsequently, 60 μL of 5,5′-dithiobis(2-nitrobenzoic acid) (DTNB, 1.1 mM) and 30 μL of enzyme solution (electric eel AChE [EeAChE], human AChE [hAChE], or equine serum BChE [EqBChE], 0.20 U/mL) containing 1 mg/mL bovine serum albumin (BSA) were added. […] Enzyme activity was calculated as the percentage relative to untreated controls, subtracting the blank reference. IC50 values were derived via non-linear regression analysis of dose–response curves (Figure S4) using GraphPad Prism v7.0.

[2] = Cytotoxicity (neurotoxicity) MTT assay in SH-SY5Y; format: cell-based; conditions: human, SH-SY5Y neuroblastoma cells; for viability at 24 h, 12.5 µM / viability at 24 h, 25 µM / viability at 24 h, 50 µM: MTT, read-out: Cell viability (% of control); for viability at 24 h: up to 25 μM, read-out: cell viability
Description: (§1) The immortalized human neuroblastoma cell line (SH-SY5Y–ATCC: CRL-2226; BCRJ:0223) was used to evaluate cytotoxicity. The cell line was cultured in Dulbecco’s Modified Eagle’s Medium and F12 in a 1:1 ratio (DMEM:F12; Sigma-Aldrich code 0697, Brazil) supplemented with 10% fetal bovine serum (FBS; Sigma-Aldrich code F2442, Brazil) and 1% streptomycin/penicillin (10,000 U/mL and 10,000 μg/mL, respectively; Nova Biotecnologia code BR30110-01, Cotia, SP, Brazil) and incubated at 37 °C with 5% CO2. The culture medium was replaced every 48 h, until the cells reached semi-confluence (≥70%). Cell passage was carried out with the aid of trypsin-EDTA/0.25% solution (Nova Biotecnologia, Brazil) and divided between 5 or 8 mL culture volumes depending on the respective bottles (25 or 75 cm^2) used.
(§2) The in vitro cytotoxicity assay evaluated cell viability using the [3-(4,5-dimethylthiazol-2yl)-2,5-diphenyl tetrazolium] bromide (MTT) reduction assay. Cells were seeded at an initial density of 5.0 × 10^4 cells/well in 96-well plates in a volume of 200 µL. […] In the next step, the culture medium was replaced by the sample solution previously described (Section 3.4.2). After 24 h exposure, the medium was replaced with 100 μL of MTT in phosphate-buffer saline (PBS), pH 7.4, at a concentration of 0.5 mg.mL^−1/well and the plates were incubated for an additional 3 h. Then, the MTT solution was removed, and 100 μL of DMSO was added to solubilize the formazan crystals. The cell viability was measured by absorbance at 562 nm using a Microplate Absorbance Reader (Kasuaki, Brazil). All concentrations tested were evaluated in nine replicates (n = 9). The variation in results was observed using ANOVA followed by Tukey’s test for multiple comparisons through GraphPad Prism v5^TM with a significance level of p < 0.05.

[3] = test system: SH-SY5Y neuroblastoma cells; assay: Cytotoxicity (neurotoxicity) MTT assay in SH-SY5Y; format: cell-based; conditions: up to 50 µM
Description: as §1, §2

hH3R = biological target: T1, hH3R (Homo sapiens, UniProt Q9Y5N1); assay: H3R radioligand displacement assay ([3H]-N-α-methylhistamine); format: binding; conditions: 95% confidence interval in brackets; HEK-293 membranes
T1 construct: expressed in transfected cells; host or cells: HEK-293
T1 sequence (Q9Y5N1 whole entry): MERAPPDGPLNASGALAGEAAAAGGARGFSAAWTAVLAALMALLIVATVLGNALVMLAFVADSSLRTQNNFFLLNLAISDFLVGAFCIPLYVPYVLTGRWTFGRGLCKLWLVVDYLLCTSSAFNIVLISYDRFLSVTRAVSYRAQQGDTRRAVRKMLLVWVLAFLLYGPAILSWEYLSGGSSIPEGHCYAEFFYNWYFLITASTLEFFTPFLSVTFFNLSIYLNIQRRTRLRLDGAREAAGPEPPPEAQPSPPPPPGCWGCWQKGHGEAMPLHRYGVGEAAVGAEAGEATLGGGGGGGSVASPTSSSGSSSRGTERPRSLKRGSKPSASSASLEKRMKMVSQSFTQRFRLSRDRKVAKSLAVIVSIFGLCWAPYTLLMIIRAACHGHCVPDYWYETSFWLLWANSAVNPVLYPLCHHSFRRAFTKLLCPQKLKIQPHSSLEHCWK
Description: HEK-293 cells (human embryonic kidney cells) stably expressing hH3R were washed and harvested in PBS buffer (phosphate-buffered saline). […] The cell membrane homogenate was centrifuged (20,000× g, 20 min, 4 °C), and the resulting pellet was resuspended in binding buffer and stored at −80 °C until use.
Prior to experiments, the cell membranes were thawed, homogenized by sonication at 4 °C, and kept in ice-cold binding buffer. Crude membrane extracts (20 μg/well in a final volume of 0.2 mL binding buffer) were incubated with [^3H]-N-α-methylhistamine (2 nM; 78.3 Ci/mmol) and varying concentrations of test compounds. Assays were performed in duplicate, with compound concentrations ranging from 0.01 nM to 100 μM. Incubations proceeded for 90 min at room temperature under continuous agitation.
Bound radioligand was separated from free radioligand by filtration through GF/B filters pretreated with 0.3% (w/v) polyethyleneimine, using a cell harvester. Radioactivity was quantified by liquid scintillation counting. Data were analyzed using GraphPad Prism v8 (San Diego, CA, USA) software, employing non-linear regression analysis.

hMAO-B = biological target: T2, hMAO-B (Homo sapiens, UniProt P27338); assay: biochemical; format: biochemical
T2 construct: purchased Sigma-Aldrich, Gillingham, UK
T2 sequence (P27338 1-520): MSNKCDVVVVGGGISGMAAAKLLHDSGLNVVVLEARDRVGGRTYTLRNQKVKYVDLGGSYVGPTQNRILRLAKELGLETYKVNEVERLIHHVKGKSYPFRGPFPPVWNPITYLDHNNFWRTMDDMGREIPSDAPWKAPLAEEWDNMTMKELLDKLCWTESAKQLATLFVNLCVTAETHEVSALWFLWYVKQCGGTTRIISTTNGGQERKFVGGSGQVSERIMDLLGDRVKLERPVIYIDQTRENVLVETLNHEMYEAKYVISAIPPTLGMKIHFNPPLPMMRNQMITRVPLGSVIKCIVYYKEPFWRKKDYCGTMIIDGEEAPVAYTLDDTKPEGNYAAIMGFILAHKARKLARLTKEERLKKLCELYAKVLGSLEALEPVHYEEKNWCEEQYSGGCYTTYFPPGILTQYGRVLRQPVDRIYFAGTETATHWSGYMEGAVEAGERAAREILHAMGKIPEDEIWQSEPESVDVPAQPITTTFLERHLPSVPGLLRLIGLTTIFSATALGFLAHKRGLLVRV
Description: The activity of human recombinant membrane-bound monoamine oxidase isoforms A and B (MAO-A/B) (Sigma-Aldrich, Gillingham, UK) in 50 mM potassium phosphate buffer (pH 7.5) was determined by measuring hydrogen peroxide production coupled to the fluorescent dye Amplex Red (Sigma-Aldrich, UK) at a final concentration of 50 μM, in the presence of horseradish peroxidase (HRP, 2.5 U/mL). This coupling reaction generates the fluorescent product resorufin, which was quantified at 30 °C using a fluorescence plate reader.
Reactions were initiated by adding the substrate and dye after a 30 min preincubation of the inhibitor with the enzyme. Data were analyzed using a three-parameter equation in GraphPad Prism 7.0 (San Diego, USA). Each reported value represents the mean of at least two independent determinations.

Sequence of electric eel AChE [EeAChE] (O42275 24-633): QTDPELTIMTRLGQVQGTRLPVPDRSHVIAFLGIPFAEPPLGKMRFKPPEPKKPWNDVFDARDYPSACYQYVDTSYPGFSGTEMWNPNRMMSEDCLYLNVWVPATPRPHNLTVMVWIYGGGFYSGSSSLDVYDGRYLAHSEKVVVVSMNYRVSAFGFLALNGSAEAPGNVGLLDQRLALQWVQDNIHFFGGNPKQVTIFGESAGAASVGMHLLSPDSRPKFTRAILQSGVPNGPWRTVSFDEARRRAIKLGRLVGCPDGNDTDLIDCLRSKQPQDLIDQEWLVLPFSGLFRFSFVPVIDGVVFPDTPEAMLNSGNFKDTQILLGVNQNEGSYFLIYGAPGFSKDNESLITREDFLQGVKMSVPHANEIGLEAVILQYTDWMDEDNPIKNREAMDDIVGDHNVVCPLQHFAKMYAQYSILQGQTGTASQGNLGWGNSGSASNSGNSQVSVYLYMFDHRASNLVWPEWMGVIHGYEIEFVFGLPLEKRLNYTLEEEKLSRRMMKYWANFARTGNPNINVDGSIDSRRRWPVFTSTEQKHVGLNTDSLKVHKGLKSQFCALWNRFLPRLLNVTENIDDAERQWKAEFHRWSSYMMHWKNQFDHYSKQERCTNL

Compound | IC50 [1] | SI [1] | viability at 24 h, 12.5 µM [2] | viability at 24 h, 25 µM [2] | viability at 24 h, 50 µM [2] | viability at 24 h [2] | neurotoxicity [3] | Ki (hH3R) | inhibition at 1 µM (hMAO-B; test concentration of 1 µM, read-out: Percentage of MAO-B inhibition ± SEM) | IC50 (hMAO-B) | MAO-B/A selectivity ratio (hMAO-B)
O=c1oc2cc(OCCN3CCCCC3)ccc2cc1-c1cn(Cc2ccccc2)nn1 [Compound 1h, 3-(1-Benzyl-1H-1,2,3-triazol-4-yl)-7-(2-(piperidin-1-yl)ethoxy)-2H-chromen-2-one] | 6.03 ± 0.62 nM | 632 | 121% | 121% | 111% | ≥ 70% | non-neurotoxic; also recorded: no neurotoxicity | 558 nM | 11.3 ± 1.9% |  | 
O=c1oc2cc(OCCCN3CCCCC3)ccc2cc1-c1cn(Cc2ccccc2)nn1 [Compound 1q, 3-(1-Benzyl-1H-1,2,3-triazol-4-yl)-7-(3-(piperidin-1-yl)propoxy)-2H-chromen-2-one] | 1950 ± 86 nM | ~2 ^e,f | 99% | 105% | 84% | ≥ 70% | non-neurotoxic | 151 nM |  | 1690 nM | greater than 18 fold
